Test results reported in patent US20220206003A1, “BIOMARKERS FOR PREDICTING RESISTANCE TO CANCER DRUGS” (INSTITUT CURIE, priority 2019, published 2022).
Where two headings read alike, the source gives them in different places.

Experiments:
[1] = system: HBCx-95 xenografts (triple negative breast cancer PDX); assay: Capecitabine treatment of HBCx-95 patient-derived xenografts (relative tumor volume, response); format: in vivo, Swiss nude mice; conditions: HBCx-95 xenograft, mouse #40, oral 540 mg/kg/day, second round after recurrence
Source text: Female Swiss nude mice were purchased from Charles River Laboratories and maintained under specific pathogen-free conditions. Their care and housing were in accordance with institutional guidelines and the rules of the French Ethics Committee (project authorization no. 02163.02). A PDX model of luminal breast cancer (HBCx-22) was previously established at Institut Curie from untreated early-stage luminal breast cancer with informed consent from the patient. Acquisition of a resistant phenotype for a derivative of HBCx-22, HBCx-22-TamR, was previously established and maintained. A PDX from a residual triple negative breast cancer post neo-adjuvant chemotherapy (HBCx-95) was previously established at Institut Curie with informed consent from the patient. HBCx-95 xenografts (n=6) were treated with Capecitabine (Xeloda, Roche Laboratories) orally at a dose of 540 mg/kg/day, 5 days a week for 6 weeks. Relative tumor volumes (RTV, mm3) were calculated. Mice with recurrent tumors were treated for a second round of Capecitabine when PDX reached a volume of over 200 mm^3 (mice #35, #40 & #33).

[2] = system: HBCx-22 / HBCx-22-TamR luminal ER+ breast PDX; conditions: cited from earlier work

SMILES | response of recurrent PDX tumor to a second round of Capecitabine [1] | response of PDX to Tamoxifen ([2]; HBCx-22-TamR tumor derivative, previously characterized) | response of PDX to Tamoxifen ([2]; HBCx-22 luminal ER+ breast PDX)
CCCCCOC(=O)Nc1nc(=O)n([C@@H]2O[C@H](C)[C@@H](O)[C@H]2O)cc1F [Capecitabine] | did not respond |  | 
CC/C(=C(\c1ccccc1)c1ccc(OCCN(C)C)cc1)c1ccccc1 [Tamoxifen] |  | acquired resistance | responsive
